Measurements: patent US20250179103A1, “6-OXODECAHYDROPYRROLO[1,2-A][1,5]DIAZOCINE AND 6-OXODECAHYDRO-4H-PYRROLO[2,1-D][1,5]THIAZOCINE DERIVATIVES AS STAT3 AND STAT6 MODULATORS FOR THE TREATMENT OF CANCER AND INFLAMMATORY CONDITIONS” (Recludix Pharma, Inc., priority 2022, published 2025)

Tests used:
[1] = molecular target: T1, Recombinant STAT6 protein (STAT6(W123-T658)) (Homo sapiens, UniProt P42226); assay: STAT6 Fluorescence Polarization (FP) Assay; type: binding; conditions: STAT6(W123-T658) 250 nM, probe 5-FAM-ApYKPFQDLI-NH2 2 nM, 45-minute incubation
T1 construct: Recombinant STAT6 protein (STAT6(W123-T658))
T1 sequence (P42226 123-658): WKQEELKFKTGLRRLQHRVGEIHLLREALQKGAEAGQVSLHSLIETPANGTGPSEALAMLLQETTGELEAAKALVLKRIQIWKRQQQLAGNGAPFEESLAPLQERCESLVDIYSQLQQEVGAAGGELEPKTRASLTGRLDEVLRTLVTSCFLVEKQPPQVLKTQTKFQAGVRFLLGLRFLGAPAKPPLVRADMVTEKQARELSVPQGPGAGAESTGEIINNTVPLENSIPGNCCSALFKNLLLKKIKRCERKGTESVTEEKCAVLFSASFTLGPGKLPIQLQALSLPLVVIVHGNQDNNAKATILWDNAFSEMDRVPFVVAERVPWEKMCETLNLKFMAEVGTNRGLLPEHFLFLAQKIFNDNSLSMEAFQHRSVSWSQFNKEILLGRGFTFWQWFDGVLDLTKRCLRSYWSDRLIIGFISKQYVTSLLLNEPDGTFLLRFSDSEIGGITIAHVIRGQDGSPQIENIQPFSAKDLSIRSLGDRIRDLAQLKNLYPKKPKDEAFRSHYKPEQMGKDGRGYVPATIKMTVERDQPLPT
In short: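 Displacement of a fluorescent phosphotyrosine peptide (5-FAM-ApYKPFQDLI-NH2, 2 nM) from STAT6(W123-T658) (250 nM), 1% DMSO, pH 7.4 HEPES buffer. After 45 min at room temperature, polarization (mP) was plotted versus log compound concentration and fitted by nonlinear regression to give IC50.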

[2] = molecular target: T2, Recombinant STAT3 protein (STAT3(G127-I722)) (Homo sapiens, UniProt P40763); assay: STAT3 Fluorescence Polarization (FP) Assay; type: binding; conditions: STAT3(G127-I722) 25 nM, probe 5-FAM-GpYLPQTV-NH2 2 nM, 45-minute incubation
T2 construct: Recombinant STAT3 protein (STAT3(G127-I722))
In short: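 Fluorescence polarization after a 45-min room-temperature incubation measured compound displacement of a 2 nM fluorescein-labelled phosphotyrosine peptide (5-FAM-GpYLPQTV-NH2) from 25 nM recombinant STAT3(G127-I722). Buffer was 10 mM HEPES pH 7.4 with 1% DMSO final. IC50s were fitted by nonlinear regression of mP against log concentration.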

T2 sequence (P40763 127-722): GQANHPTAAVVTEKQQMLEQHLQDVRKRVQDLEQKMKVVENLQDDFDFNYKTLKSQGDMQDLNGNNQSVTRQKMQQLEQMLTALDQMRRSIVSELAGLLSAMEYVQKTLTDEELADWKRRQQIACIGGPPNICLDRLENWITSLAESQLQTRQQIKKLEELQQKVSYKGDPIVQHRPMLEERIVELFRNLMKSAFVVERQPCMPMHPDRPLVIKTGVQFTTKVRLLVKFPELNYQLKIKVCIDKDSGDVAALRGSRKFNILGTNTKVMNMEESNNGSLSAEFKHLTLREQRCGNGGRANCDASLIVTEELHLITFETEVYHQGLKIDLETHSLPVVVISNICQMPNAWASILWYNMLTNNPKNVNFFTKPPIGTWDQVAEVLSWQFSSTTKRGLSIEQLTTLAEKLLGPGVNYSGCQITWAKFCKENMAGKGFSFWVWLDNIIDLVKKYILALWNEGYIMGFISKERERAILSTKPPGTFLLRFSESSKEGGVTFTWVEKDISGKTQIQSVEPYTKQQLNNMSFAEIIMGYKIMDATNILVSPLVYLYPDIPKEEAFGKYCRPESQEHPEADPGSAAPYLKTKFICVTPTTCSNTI

SMILES: COc1ccccc1C1CN(C(=O)[C@@H]2CC[C@@H]3CCN(C(C)=O)C[C@H](NC(=O)c4cc5cc(C(F)(F)P(=O)(O)O)ccc5s4)C(=O)N32)C[C@@H]1C#N (relative stereo) [Compound 144, ((2-(((5S,8S,10aR)-3-acetyl-8-((rel-trans)-3-cyano-4-(2-methoxyphenyl)pyrrolidine-1-carbonyl)-6-oxodecahydropyrrolo[1,2-a][1,5]diazocin-5-yl)carbamoyl)benzo[b]thiophen-5-yl)difluoromethyl)phosphonic acid]
- IC50 [1]: ≤ 300 nM
- IC50 [2]: 1000 to 10000 nM

SMILES: Cc1ccc2[nH]nc(C(=O)N3CC[C@H]4CC[C@@H](C(=O)N5C[C@H](c6ccccc6)[C@@H](C#N)C5)N4C(=O)[C@@H](NC(=O)c4ccc5ccc(C(F)(F)P(=O)(O)O)cc5c4)C3)c2c1 (relative stereo) [Compound 236, ((7-(((5S,8S,10aR)-8-((rel-trans)-3-cyano-4-phenylpyrrolidine-1-carbonyl)-3-(5-methyl-1H-indazole-3-carbonyl)-6-oxodecahydropyrrolo[1,2-a][1,5]diazocin-5-yl)carbamoyl)naphthalen-2-yl)difluoromethyl)phosphonic acid]
- IC50 [1]: ≤ 300 nM
- IC50 [2]: 100 to 1000 nM

SMILES: CC(=O)N1CC[C@H]2CC[C@@H](C(=O)Nc3ccc4nccn4c3)N2C(=O)[C@@H](NC(=O)c2cc3cc(C(F)(F)P(=O)(O)O)ccc3s2)C1 [Compound 72, ((2-(((5S,8S,10aR)-3-acetyl-8-(imidazo[1,2-a]pyridin-6-ylcarbamoyl)-6-oxodecahydropyrrolo[1,2-a][1,5]diazocin-5-yl)carbamoyl)benzo[b]thiophen-5-yl)difluoromethyl)phosphonic acid]
- IC50 [1]: 300 to 3000 nM
- IC50 [2]: 1000 to 10000 nM

SMILES: CC(=O)N1CC[C@H]2CC[C@@H](C(=O)N3CCC[C@@H](c4ccccc4)C3)N2C(=O)[C@@H](NC(=O)c2cc3cc(C(F)(F)P(=O)(O)O)ccc3[nH]2)C1 [Compound 107, ((2-(((5S,8S,10aR)-3-acetyl-6-oxo-8-((S)-3-phenylpiperidine-1-carbonyl)decahydropyrrolo[1,2-a][1,5]diazocin-5-yl)carbamoyl)-1H-indol-5-yl)difluoromethyl)phosphonic acid]
- IC50 [1]: ≤ 300 nM
- IC50 [2]: 1000 to 10000 nM

SMILES: CC(=O)N1CC[C@H]2CC[C@@H](C(=O)N3C[C@H](C#N)C[C@@H]3Cc3ccccc3)N2C(=O)[C@@H](NC(=O)c2cc3cc(C(F)(F)P(=O)(O)O)ccc3s2)C1 [Compound 43, ((2-(((5S,8S,10aR)-3-acetyl-8-((2R,4R)-2-benzyl-4-cyanopyrrolidine-1-carbonyl)-6-oxodecahydropyrrolo[1,2-a][1,5]diazocin-5-yl)carbamoyl)benzo[b]thiophen-5-yl)difluoromethyl)phosphonic acid]
- IC50 [1]: 300 to 3000 nM
- IC50 [2]: 1000 to 10000 nM

SMILES: CC(=O)N1CC[C@H]2CC[C@@H](C(=O)N(C)CC(C)C#N)N2C(=O)[C@@H](NC(=O)c2cc3cc(C(F)(F)P(=O)(O)O)ccc3s2)C1 (stereo partly drawn) [Compound 89, ((2-(((5S,8S,10aR)-3-acetyl-8-((2-cyanopropyl)(methyl)carbamoyl)-6-oxodecahydropyrrolo[1,2-a][1,5]diazocin-5-yl)carbamoyl)benzo[b]thiophen-5-yl)difluoromethyl)phosphonic acid]
- IC50 [1]: 300 to 3000 nM
- IC50 [2]: 1000 to 10000 nM

SMILES: COC(=O)N1CC[C@H]2CC[C@@H](C(=O)N3CCCC3)N2C(=O)[C@@H](NC(=O)c2cc3cc(C(F)(F)P(=O)(O)O)ccc3s2)C1 [Compound 262, (difluoro(2-(((5S,8S,10aR)-3-(methoxycarbonyl)-6-oxo-8-(pyrrolidine-1-carbonyl)decahydropyrrolo[1,2-a][1,5]diazocin-5-yl)carbamoyl)benzo[b]thiophen-5-yl)methyl)phosphonic acid]
- IC50 [1]: 300 to 3000 nM
- IC50 [2]: 1000 to 10000 nM

SMILES: O=C(N[C@H]1CCN(C(=O)OCc2ccccc2)C[C@H]2CC[C@@H](C(=O)N3CC(c4cccnc4)C3)N2C1=O)c1cc2cc(C(F)(F)P(=O)(O)O)ccc2s1 [Compound 214, ((2-(((5S,8S,10aR)-2-((benzyloxy)carbonyl)-6-oxo-8-(3-(pyridin-3-yl)azetidine-1-carbonyl)decahydropyrrolo[1,2-a][1,4]diazocin-5-yl)carbamoyl)benzo[b]thiophen-5-yl)difluoromethyl)phosphonic acid]
- IC50 [1]: 3000 to 30000 nM
- IC50 [2]: ≤ 100 nM

SMILES: N#C[C@H]1CN(C(=O)[C@@H]2CC[C@@H]3CCN(CC(F)F)C[C@H](NC(=O)c4ccc5ccc(C(F)(F)P(=O)(O)O)cc5c4)C(=O)N32)C[C@@H]1c1cc(F)cc(F)c1 (relative stereo) [Compound 246, ((7-(((5S,8S,10aR)-8-((rel-trans)-3-cyano-4-(3,5-difluorophenyl)pyrrolidine-1-carbonyl)-3-(2,2-difluoroethyl)-6-oxodecahydropyrrolo[1,2-a][1,5]diazocin-5-yl)carbamoyl)naphthalen-2-yl)difluoromethyl)phosphonic acid]
- IC50 [1]: 300 to 3000 nM
- IC50 [2]: 1000 to 10000 nM

SMILES: CCN1CC[C@H]2CC[C@@H](C(=O)N3C[C@@H](C#N)[C@H](c4cc[nH]c(=O)c4)C3)N2C(=O)[C@@H](NC(=O)c2ccc3ccc(C(F)(F)P(=O)(O)O)cc3c2)C1 (single isomer, unassigned) [Compound 238, ((7-(((5S,8S,10aR)-8-((3R,4S or 3S,4R)-3-cyano-4-(2-oxo-1,2-dihydropyridin-4-yl)pyrrolidine-1-carbonyl)-3-ethyl-6-oxodecahydropyrrolo[1,2-a][1,5]diazocin-5-yl)carbamoyl)naphthalen-2-yl)difluoromethyl)phosphonic acid]
- IC50 [1]: 300 to 3000 nM
- IC50 [2]: 1000 to 10000 nM

SMILES: COc1cc(C2CN(C(=O)[C@@H]3CC[C@@H]4CCN(C(C)=O)C[C@H](NC(=O)c5cc6cc(C(F)(F)P(=O)(O)O)ccc6s5)C(=O)N43)C[C@@H]2C#N)ccn1 (relative stereo) [Compound 148, ((2-(((5S,8S,10aR)-3-acetyl-8-((rel-trans)-3-cyano-4-(2-methoxypyridin-4-yl)pyrrolidine-1-carbonyl)-6-oxodecahydropyrrolo[1,2-a][1,5]diazocin-5-yl)carbamoyl)benzo[b]thiophen-5-yl)difluoromethyl)phosphonic acid]
- IC50 [1]: 300 to 3000 nM
- IC50 [2]: 1000 to 10000 nM

SMILES: N#Cc1ccccc1-c1ccc(NC(=O)[C@@H]2CC[C@@H]3CCN(C(=O)Cc4ccccc4)C[C@H](NC(=O)c4cc5cc(C(F)(F)P(=O)(O)O)ccc5[nH]4)C(=O)N32)c(F)c1 [Compound 276, ((2-(((5S,8S,10aR)-8-((2′-cyano-3-fluoro-[1,1′-biphenyl]-4-yl)carbamoyl)-6-oxo-3-(2-phenylacetyl)decahydropyrrolo[1,2-a][1,5]diazocin-5-yl)carbamoyl)-1H-indol-5-yl)difluoromethyl)phosphonic acid]
- IC50 [1]: 300 to 3000 nM
- IC50 [2]: 1000 to 10000 nM

SMILES: CC(=O)N1CC[C@H]2CC[C@@H](C(=O)Nc3ccc4nnccc4c3)N2C(=O)[C@@H](NC(=O)c2cc3cc(C(F)(F)P(=O)(O)O)ccc3s2)C1 [Compound 174, ((2-(((5S,8S,10aR)-3-acetyl-8-(cinnolin-6-ylcarbamoyl)-6-oxodecahydropyrrolo[1,2-a][1,5]diazocin-5-yl)carbamoyl)benzo[b]thiophen-5-yl)difluoromethyl)phosphonic acid]
- IC50 [1]: ≤ 300 nM
- IC50 [2]: 100 to 1000 nM

SMILES: N#Cc1cccc(C2CN(C(=O)[C@@H]3CC[C@@H]4CCN(Cc5ncccn5)C[C@H](NC(=O)c5cc6cc(CP(=O)(O)O)ccc6s5)C(=O)N43)C2)n1 [Compound 399, ((2-(((5S,8S,10aR)-8-(3-(6-cyanopyridin-2-yl)azetidine-1-carbonyl)-6-oxo-3-(pyrimidin-2-ylmethyl)decahydro-pyrrolo[1,2-a][1,5]diazocin-5-yl)carbamoyl)benzo[b]thiophen-5-yl)methyl) phosphonic acid]
- IC50 [1]: > 30000 nM
- IC50 [2]: 100 to 1000 nM

SMILES: CC(=O)N1CC[C@H]2CC[C@@H](C(=O)N(C)CC(C)(C)C#N)N2C(=O)[C@@H](NC(=O)c2cc3cc(C(F)(F)P(=O)(O)O)ccc3s2)C1 [Compound 92, ((2-(((5S,8S,10aR)-3-acetyl-8-((2-cyano-2-methylpropyl)(methyl)carbamoyl)-6-oxodecahydropyrrolo[1,2-a][1,5]diazocin-5-yl)carbamoyl)benzo[b]thiophen-5-yl)difluoromethyl)phosphonic acid]
- IC50 [1]: 300 to 3000 nM
- IC50 [2]: 1000 to 10000 nM

SMILES: CC(=O)N1CC[C@H]2CC[C@@H](C(=O)N3C[C@@H](C#N)[C@H](C4CCCCC4)C3)N2C(=O)[C@@H](NC(=O)c2cc3cc(C(F)(F)P(=O)(O)O)ccc3s2)C1 (relative stereo) [Compound 151, ((2-(((5S,8S,10aR)-3-acetyl-8-((rel-trans)-3-cyano-4-cyclohexylpyrrolidine-1-carbonyl)-6-oxodecahydropyrrolo[1,2-a][1,5]diazocin-5-yl)carbamoyl)benzo[b]thiophen-5-yl)difluoromethyl)phosphonic acid]
- IC50 [1]: 300 to 3000 nM
- IC50 [2]: 1000 to 10000 nM
